We go through eight compounds from PubChem BioAssay (NCI).

Among the test systems are HS 578T breast; SK-MEL-2 melanoma; HCT-15 colon; SNB-19 CNS; SK-MEL-5 melanoma; HL-60(TB) leukemia; HT29 colon; NCI-H460 lung; SF-295 CNS; LOX IMVI melanoma.
Common to all, as to assay: NCI tumour cell line growth inhibition, 48 h

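Assay format: 96-well plates, 48-hour exposure. Abbreviation: GI50, concentration required for 50% inhibition of growth. The concentration for full growth arrest is given as TGI.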 Some results are limits rather than exact numbers.

As for `COc1ccc(C/C(C)=C(\c2ccc(OCCN3CCOCC3)cc2)c2ccc(OC(=O)Cc3ccccc3)cc2)cc1`, the GI50 in the assay with HS 578T breast is 0.658 µM; with SK-MEL-2 melanoma it was 0.657 µM; in the assay with HCT-15 colon, 0.566 µM; in the assay with SNB-19 CNS, 1.3 µM; in the assay with SK-MEL-5 melanoma, 0.485 µM; with HL-60(TB) leukemia, 0.553 µM. In addition, the GI50 in the assay with HT29 colon was 0.288 µM; in the assay on NCI-H460 lung it was 0.713 µM; in the assay on SF-295 CNS, 0.58 µM; in the assay with LOX IMVI melanoma, 0.56 µM. For the same compound, the TGI in the assay on HS 578T breast turned out to be 1.67 µM; with SK-MEL-2 melanoma it was 1.25 µM; with HCT-15 colon, 1.5 µM; with SNB-19 CNS, 8.34 µM; with SK-MEL-5 melanoma, 0.93 µM; in the assay with HL-60(TB) leukemia, 1.26 µM. In addition, the TGI in the assay on HT29 colon came out at 0.716 µM; in the assay with NCI-H460 lung it was 1.53 µM; with SF-295 CNS, 1.12 µM; in the assay with LOX IMVI melanoma, 1.03 µM.
In the case of `CCN(CCNc1ccc(C)c2sc3cc(Cl)ccc3c(=O)c12)CC(C)O` (stereo unspecified), the GI50 was 2.23 µM with HS 578T breast; 2.33 µM in the assay with HCT-15 colon; 1.65 µM in the assay on SNB-19 CNS; 1.62 µM with SK-MEL-5 melanoma; 1.7 µM in the assay on HL-60(TB) leukemia; 1.65 µM in the assay with HT29 colon. Further, the GI50 was 1.78 µM in the assay on NCI-H460 lung, 1.67 µM in the assay on SF-295 CNS and 1.85 µM with LOX IMVI melanoma. The TGI in the assay with HS 578T breast was 4.35 µM; in the assay on HCT-15 colon it was 5.85 µM; in the assay on SNB-19 CNS it was 3.66 µM; with SK-MEL-5 melanoma, 2.98 µM; in the assay with HL-60(TB) leukemia it was 3.35 µM; in the assay on HT29 colon, 3.17 µM. The TGI was 3.34 µM in the assay with NCI-H460 lung, 3.72 µM with SF-295 CNS and 3.72 µM in the assay with LOX IMVI melanoma.
Turning to `Cn1ccnc1C(=O)/C=C/c1ccc(CC(=O)Nc2ccc(S(F)(F)(F)(F)F)cc2)cc1`, the GI50 in the assay with HS 578T breast was 4.91 µM; with SK-MEL-2 melanoma it was 3.59 µM; in the assay with HCT-15 colon, 0.878 µM; in the assay on SNB-19 CNS, 2.23 µM; with SK-MEL-5 melanoma, 3.02 µM; in the assay on HL-60(TB) leukemia, 0.62 µM. The GI50 in the assay with HT29 colon was 3.25 µM; in the assay on NCI-H460 lung it was 2.25 µM; in the assay on SF-295 CNS, 2.16 µM; in the assay with LOX IMVI melanoma it was 1.19 µM. Besides, the TGI in the assay on HS 578T breast amounted to 16.4 µM; in the assay on SK-MEL-2 melanoma, 10 µM; in the assay on HCT-15 colon it was 11.7 µM; in the assay on SNB-19 CNS it was 4.82 µM; in the assay with SK-MEL-5 melanoma, 5.48 µM; in the assay with HL-60(TB) leukemia it was 4.47 µM. For the same compound, the TGI in the assay on HT29 colon stood at 7.2 µM; with NCI-H460 lung, 7.58 µM; in the assay with SF-295 CNS, 4.73 µM; in the assay with LOX IMVI melanoma it was 3.34 µM.
Regarding `COC(=O)c1cc(-c2cc(OC)c(OC)c(OC)c2)[nH]c1N/N=C/c1c(Cl)cccc1Cl`, the GI50 was 1.15 µM in the assay with HS 578T breast; 3.01 µM with SK-MEL-2 melanoma; 16 µM in the assay on HCT-15 colon; 3.37 µM with SNB-19 CNS; 3.17 µM with SK-MEL-5 melanoma; 3.18 µM in the assay with HT29 colon. Further, the GI50 in the assay on NCI-H460 lung is 1.48 µM; in the assay with SF-295 CNS, 1.01 µM; with LOX IMVI melanoma, 2.67 µM. Moreover, the TGI with HS 578T breast is more than 27 µM; in the assay with SK-MEL-2 melanoma, 17.9 µM; in the assay on HCT-15 colon, more than 100 µM; with SNB-19 CNS, 21.4 µM; with SK-MEL-5 melanoma, 17.6 µM; with HL-60(TB) leukemia it was more than 100 µM. Further, the TGI was more than 82.4 µM with HT29 colon, 18.3 µM in the assay on NCI-H460 lung, 22.8 µM with SF-295 CNS and 17.3 µM with LOX IMVI melanoma.
With `O=C(/C=C/c1cccs1)c1ccc(Nc2nc(Nc3ccc(F)cc3)nc(Nc3ccc(F)cc3)n2)cc1`, the GI50 in the assay with HS 578T breast is 23.8 µM; with SK-MEL-2 melanoma, 44.4 µM; with HCT-15 colon it was 37.4 µM; in the assay with SNB-19 CNS, 34.1 µM; with SK-MEL-5 melanoma it was 56.4 µM; in the assay with HL-60(TB) leukemia it was 62.2 µM. The GI50 in the assay on HT29 colon was 22.2 µM; in the assay with NCI-H460 lung, 20.4 µM; with SF-295 CNS, 20.4 µM; in the assay on LOX IMVI melanoma it was 32.1 µM. Moreover, the TGI in the assay with HS 578T breast is 74.3 µM; in the assay with SK-MEL-2 melanoma, more than 100 µM; in the assay on HCT-15 colon it was more than 100 µM; with SNB-19 CNS it was more than 100 µM; in the assay with SK-MEL-5 melanoma, more than 100 µM; in the assay on HL-60(TB) leukemia, more than 100 µM. The TGI is 70.5 µM in the assay with HT29 colon, more than 100 µM in the assay on NCI-H460 lung, 46.6 µM in the assay with SF-295 CNS and more than 100 µM in the assay on LOX IMVI melanoma.
As to `C[C@]12CC[C@@H]3c4ccc(O)cc4CC[C@H]3[C@@H]1CC[C@@H]2NS(=O)(=O)c1cccc(C(F)(F)F)c1`, the GI50 with HS 578T breast was 3.24 µM; in the assay on SK-MEL-2 melanoma it was 3.7 µM; in the assay on HCT-15 colon, 2.17 µM; in the assay on SNB-19 CNS it was 4.64 µM; in the assay with SK-MEL-5 melanoma, 1.79 µM; with HL-60(TB) leukemia, 3.54 µM. Further, the GI50 is 3.39 µM in the assay on HT29 colon, 2.6 µM in the assay on NCI-H460 lung and 1.86 µM with SF-295 CNS. The TGI in the assay with HS 578T breast was found to be 15.6 µM; in the assay on SK-MEL-2 melanoma, 13 µM; in the assay on HCT-15 colon it was 5.23 µM; with SNB-19 CNS, 18.2 µM; in the assay with SK-MEL-5 melanoma, 3.29 µM; in the assay on HL-60(TB) leukemia it was 15.5 µM. Besides, the TGI amounted to 10.2 µM in the assay on HT29 colon, 6.79 µM in the assay with NCI-H460 lung and 3.63 µM in the assay on SF-295 CNS.
On to `CCN1CCN(CC(=O)Nc2nc3ccc(NCc4ccc(Cl)cc4)cc3s2)CC1`, for which the GI50 is 2.59 µM with HS 578T breast; 2.02 µM in the assay on SK-MEL-2 melanoma; 1.95 µM with HCT-15 colon; 3.12 µM in the assay on SNB-19 CNS; 1.67 µM in the assay with SK-MEL-5 melanoma; 1.95 µM in the assay with HL-60(TB) leukemia. Moreover, the GI50 in the assay with HT29 colon is 2.02 µM; with NCI-H460 lung, 2.18 µM; in the assay on LOX IMVI melanoma it was 1.68 µM. Besides, the TGI worked out at 9.09 µM in the assay with HS 578T breast; 3.98 µM in the assay on SK-MEL-2 melanoma; 4.66 µM in the assay with HCT-15 colon; 10.7 µM in the assay on SNB-19 CNS; 3.07 µM in the assay with SK-MEL-5 melanoma; 3.87 µM in the assay on HL-60(TB) leukemia. Moreover, the results for the TGI in the assay with HT29 colon, in the assay on NCI-H460 lung and in the assay with LOX IMVI melanoma were 4.61 µM, 4.69 µM and 3.17 µM, respectively.
Take `O=C(CCCCCCSc1nc(-c2ccccc2)cc(-c2ccccc2)n1)NO`: the GI50 is 1.56 µM in the assay with HS 578T breast; 3.94 µM in the assay with SK-MEL-2 melanoma; 2.29 µM with HCT-15 colon; 2.69 µM in the assay on SNB-19 CNS; 1.46 µM in the assay with SK-MEL-5 melanoma; 2.02 µM in the assay on HT29 colon. Further, the GI50 in the assay on NCI-H460 lung is 1.4 µM; with SF-295 CNS, 2.18 µM; with LOX IMVI melanoma it was 1.86 µM. Further, the TGI in the assay on HS 578T breast worked out at 14.5 µM; with SK-MEL-2 melanoma it was 21 µM; with HCT-15 colon, 10.6 µM; with SNB-19 CNS, 11.3 µM; in the assay with SK-MEL-5 melanoma, 3.48 µM; with HT29 colon, 11.3 µM. Besides, the TGI in the assay on NCI-H460 lung came out at 11.7 µM; in the assay with SF-295 CNS, 5.78 µM; in the assay on LOX IMVI melanoma it was 3.84 µM.
